{"source": "patent EP0007880B1", "about": "“Medicines containing as active ingredients compounds of the benzene-sulfone type; compounds of this type and process for their preparation” (CHOAY S.A., priority 1978, dated 1980)", "key": {"souris Swiss": {"system": "souris Swiss", "assay": "Acute toxicity in mice (lethal dose 50, Behrens and Karber)", "format": "in vivo", "settings": "dose 1,5g/kg, voie intrapéritonéale; mice observed 8 days"}, "rats Wistar mâles": {"system": "rats Wistar mâles", "assay": "Normolipemic and/or hypoglycemic activity in Triton W.R.-induced hyperlipidemia in fasted rats", "format": "in vivo", "design": "Cholestérol Total / Cholestérol Estérifié / Trigly-cérides: unit not given here", "settings": "fasted rats given Triton W.R. 200mg/kg i.v.; for Cholestérol Estérifié / Cholestérol Total / Glucose / Lipides totaux / Trigly-cérides: product given simultaneously, i.p. 100 mg/kg or oral 500 mg/kg (route not stated per product), blood sampled six hours later; for Cholestérol Rapport E/T: ratio esterified/total cholesterol, product i.p. 100 mg/kg or oral 500 mg/kg, six hours later", "description": "Les essais sont réalisés sur des groupes de 5 rats Wistar mâles (150 à 175g). Les produits testés sont administrés soit par voie intrapéritonéale, à raison de 100 mg/kg dans du soluté isotonique, soit par voie orale, en solution aqueuse à 3% de gomme adragante (1 ml/100g de poids corporel) en quantité correspondant à 500 mg/kg.\nPour ces essais, on provoque une hyperlipidémie chez les animaux au moyen du produit commercialisé par la Société ROHM et HAAS sous le nom de Triton W.R. Chez le rat à jeun, l'injection intraveineuse de Triton entraine une hyperlipidémie particulièrement nette pour les triglycérides .et de façon moindre pour les lipides totaux.\nCette hyperlipidémie est combattue par l'action des substances actives selon l'invention.\nLe protocole de l'essai est le suivant. Les rats sont mis à jeûner pendant 18 heures. Le Triton W.R. est administré par voie intraveineuse en solution aqueuse à 10% à raison de 200mg/kg.\nSimultanément, les rats reçoivent les produits à tester. Six heures plus tard, on effectue les dosages de façon traditionnelle sur des échantillons sanguins."}}, "data": [{"smiles": "CC(C(O)(c1ccccc1)c1ccccc1)S(=O)(=O)c1ccccc1", "note": "(stereo not shown) [Exemple 27]", "values": [{"measurement": "animaux encore en vie", "setting": "souris Swiss", "result": "5 animaux sur 5 sont encore en vie"}]}, {"smiles": "CC(C)(Oc1ccc(Cl)cc1)C(=O)OCCCS(=O)(=O)c1ccccc1", "note": "[Exemple 47]", "values": [{"measurement": "Cholestérol Estérifié", "setting": "rats Wistar mâles", "result": "0,90"}, {"measurement": "Cholestérol Total", "setting": "rats Wistar mâles", "result": "1,52"}, {"measurement": "Glucose", "setting": "rats Wistar mâles", "result": "0,97 g/l"}, {"measurement": "Lipides totaux", "setting": "rats Wistar mâles", "result": "10,28 g/l"}, {"measurement": "Trigly-cérides", "setting": "rats Wistar mâles", "result": "4,56"}, {"measurement": "Cholestérol Rapport E/T", "setting": "rats Wistar mâles", "result": "59,99"}]}, {"smiles": "O=S(=O)(CC(O)c1ccc(F)cc1)c1ccccc1", "note": "(stereo not shown) [Exemple 24]", "values": [{"measurement": "Cholestérol Estérifié", "setting": "rats Wistar mâles", "result": "0,98"}, {"measurement": "Cholestérol Total", "setting": "rats Wistar mâles", "result": "1,48"}, {"measurement": "Glucose", "setting": "rats Wistar mâles", "result": "1,12 g/l"}, {"measurement": "Lipides totaux", "setting": "rats Wistar mâles", "result": "15,30 g/l"}, {"measurement": "Trigly-cérides", "setting": "rats Wistar mâles", "result": "1,80"}, {"measurement": "Cholestérol Rapport E/T", "setting": "rats Wistar mâles", "result": "69,40"}]}, {"smiles": "O=S(=O)(CC1(O)CCCCC1)c1ccc(F)cc1", "note": "[Exemple 32]", "values": [{"measurement": "Cholestérol Estérifié", "setting": "rats Wistar mâles", "result": "0,73"}, {"measurement": "Cholestérol Total", "setting": "rats Wistar mâles", "result": "1,14"}, {"measurement": "Glucose", "setting": "rats Wistar mâles", "result": "0,92 g/l"}, {"measurement": "Lipides totaux", "setting": "rats Wistar mâles", "result": "10,99 g/l"}, {"measurement": "Trigly-cérides", "setting": "rats Wistar mâles", "result": "4,00"}, {"measurement": "Cholestérol Rapport E/T", "setting": "rats Wistar mâles", "result": "65,17"}]}, {"smiles": "O=S(=O)(CCCO)c1ccccc1", "note": "[Exemple 40]", "values": [{"measurement": "Cholestérol Estérifié", "setting": "rats Wistar mâles", "result": "0,99"}, {"measurement": "Cholestérol Total", "setting": "rats Wistar mâles", "result": "1,56"}, {"measurement": "Glucose", "setting": "rats Wistar mâles", "result": "0,93 g/l"}, {"measurement": "Lipides totaux", "setting": "rats Wistar mâles", "result": "3,76 g/l"}, {"measurement": "Cholestérol Rapport E/T", "setting": "rats Wistar mâles", "result": "61,2"}]}, {"smiles": "CC(C)(O)CS(=O)(=O)c1ccccc1", "note": "[Exemple 19]", "values": [{"measurement": "Cholestérol Estérifié", "setting": "rats Wistar mâles", "result": "1,09"}, {"measurement": "Cholestérol Total", "setting": "rats Wistar mâles", "result": "2,04"}, {"measurement": "Glucose", "setting": "rats Wistar mâles", "result": "0,78 g/l"}, {"measurement": "Lipides totaux", "setting": "rats Wistar mâles", "result": "7,62 g/l"}, {"measurement": "Trigly-cérides", "setting": "rats Wistar mâles", "result": "2,84"}, {"measurement": "Cholestérol Rapport E/T", "setting": "rats Wistar mâles", "result": "55,6"}]}, {"smiles": "O=S(=O)(CC(O)c1ccccc1)c1ccc(F)cc1", "note": "(stereo not shown) [Exemple 28]", "values": [{"measurement": "Cholestérol Estérifié", "setting": "rats Wistar mâles", "result": "0,66"}, {"measurement": "Cholestérol Total", "setting": "rats Wistar mâles", "result": "1,24"}, {"measurement": "Glucose", "setting": "rats Wistar mâles", "result": "1,22 g/l"}, {"measurement": "Lipides totaux", "setting": "rats Wistar mâles", "result": "6,0 g/l"}, {"measurement": "Trigly-cérides", "setting": "rats Wistar mâles", "result": "4,31"}, {"measurement": "Cholestérol Rapport E/T", "setting": "rats Wistar mâles", "result": "54,4"}]}, {"smiles": "O=S(=O)(CC1(O)CCCCC1)c1ccccc1", "note": "[Exemple 21]", "values": [{"measurement": "Cholestérol Estérifié", "setting": "rats Wistar mâles", "result": "2,06"}, {"measurement": "Cholestérol Total", "setting": "rats Wistar mâles", "result": "3,09"}, {"measurement": "Glucose", "setting": "rats Wistar mâles", "result": "0,89 g/l"}, {"measurement": "Lipides totaux", "setting": "rats Wistar mâles", "result": "9,56 g/l"}, {"measurement": "Trigly-cérides", "setting": "rats Wistar mâles", "result": "2,23"}, {"measurement": "Cholestérol Rapport E/T", "setting": "rats Wistar mâles", "result": "66,0"}]}, {"smiles": "O=S(=O)(CC(O)c1ccc(Cl)cc1)c1ccccc1", "note": "(stereo not shown) [Exemple 23]", "values": [{"measurement": "animaux encore en vie", "setting": "souris Swiss", "result": "5 animaux sur 5 sont encore en vie"}]}, {"smiles": "O=S(=O)(CC(O)c1ccccc1)c1ccccc1", "note": "(stereo not shown) [Exemple 22]", "values": [{"measurement": "Cholestérol Estérifié", "setting": "rats Wistar mâles", "result": "1,89"}, {"measurement": "Cholestérol Total", "setting": "rats Wistar mâles", "result": "2,28"}, {"measurement": "Glucose", "setting": "rats Wistar mâles", "result": "1,18 g/l"}, {"measurement": "Lipides totaux", "setting": "rats Wistar mâles", "result": "8,50 g/l"}, {"measurement": "Trigly-cérides", "setting": "rats Wistar mâles", "result": "3,95"}, {"measurement": "Cholestérol Rapport E/T", "setting": "rats Wistar mâles", "result": "82,4"}]}, {"smiles": "CCC(C)(O)CS(=O)(=O)c1ccccc1", "note": "(stereo not shown) [Exemple 20]", "values": [{"measurement": "Cholestérol Estérifié", "setting": "rats Wistar mâles", "result": "1,64"}, {"measurement": "Cholestérol Total", "setting": "rats Wistar mâles", "result": "2,20"}, {"measurement": "Glucose", "setting": "rats Wistar mâles", "result": "0,84 g/l"}, {"measurement": "Lipides totaux", "setting": "rats Wistar mâles", "result": "7,36 g/l"}, {"measurement": "Trigly-cérides", "setting": "rats Wistar mâles", "result": "2,07"}, {"measurement": "Cholestérol Rapport E/T", "setting": "rats Wistar mâles", "result": "76,8"}]}]}
